# Where two headings read alike, the source gives them in different places.
# Legend:
# Bifidobacterium bifidum [1] = assay: Broth microdilution MIC, anaerobic bacteria (Example 4); assay type: cell-based; conditions: isolate MMX 3965
# Bacteroides fragilis = assay: Broth microdilution MIC, anaerobic bacteria (Example 1); assay type: cell-based; conditions: Bacteroides fragilis, ATCC5285
# B. bifidum MMX 3965 = assay: MIC/MBC testing (Example 5); assay type: cell-based; conditions: Bifidobacterium bifidum, MMX3965; Example 5; read-out: MIC
# B. fragilis ATCC 25285 [2] = assay: MIC/MBC testing (Example 5); assay type: cell-based; conditions: Bacteroides fragilis, ATCC25285; Example 5; read-out: MIC
# Clostridium difficile [3] = assay: Broth microdilution MIC, anaerobic bacteria (Example 1); assay type: cell-based; conditions: Clostridioides difficile
# Clostridium difficile [4] = assay: Broth microdilution MIC, anaerobic bacteria (Example 4); assay type: cell-based; conditions: Clostridioides difficile
# Lactobacillus jensenii [5] = assay: Broth microdilution MIC, anaerobic bacteria (Example 1); assay type: cell-based; conditions: Lactobacillus jensenii; Example 1; isolate MMX 4149; read-out: MIC
# C. difficile = assay: MIC/MBC testing (Example 5); assay type: cell-based
# Bifidobacterium longum [6] = assay: Broth microdilution MIC, anaerobic bacteria (Example 1); assay type: cell-based; conditions: Bifidobacterium longum; Example 1; isolate MMX 3968; read-out: MIC
# Lactobacillus jensenii [7] = assay: Broth microdilution MIC, anaerobic bacteria (Example 4); assay type: cell-based; conditions: isolate MMX 4149
# B. fragilis ATCC 25285 [8] = conditions: Example 5 control agents table; cited from earlier work
# Bifidobacterium bifidum [9] = assay: Broth microdilution MIC, anaerobic bacteria (Example 1); assay type: cell-based; conditions: Bifidobacterium bifidum; Example 1; isolate MMX 3965; read-out: MIC
# Bifidobacterium longum [10] = assay: Broth microdilution MIC, anaerobic bacteria (Example 4); assay type: cell-based; conditions: isolate MMX 3968
# B. longum MMX 3968 = assay: MIC/MBC testing (Example 5); assay type: cell-based; conditions: Bifidobacterium longum, MMX3968; Example 5; read-out: MIC
# Lactobacillus crispatus = assay: Broth microdilution MIC, anaerobic bacteria (Example 1); assay type: cell-based; conditions: Lactobacillus crispatus; Example 1; isolate MMX 4147; read-out: MIC
smiles,measurement,setting,value
Cc1ncc([N+](=O)[O-])n1CCO [Metronidazole],MIC,Bifidobacterium bifidum [1],2 µg/mL
same,MIC,Bacteroides fragilis,0.5 µg/mL
same,MIC,B. bifidum MMX 3965,1 µg/mL
same,MIC,B. fragilis ATCC 25285 [2],0.5 µg/mL
same,MIC,"Clostridium difficile [3]; ATCC00057, Example 1, isolate MMX 4381 (ATCC 00057)",0.12 µg/mL
same,MIC,"Clostridium difficile [3]; Example 1, isolate MMX 8330, read-out: MIC",0.12 µg/mL
same,MIC,"Clostridium difficile [4]; ATCC700057, Example 4, isolate MMX 4381 (ATCC 700057)",0.25 µg/mL
same,MIC,"Clostridium difficile [4]; Example 4, isolate MMX 8330",0.25 µg/mL
same,MIC,"Clostridium difficile [4]; Example 4, isolate MMX 8333",2 µg/mL
same,MIC,Lactobacillus jensenii [5],> 32 µg/mL
same,MIC,"C. difficile; Clostridioides difficile, ATCC700057, Example 5, ATCC 700057",0.12 µg/mL
same,MIC,"C. difficile; Clostridioides difficile, Example 5, MMX 8330, read-out: MIC",0.5 µg/mL
same,MIC,"C. difficile; Example 5, MMX 8333",0.5 µg/mL
same,MIC,Bifidobacterium longum [6],8 µg/mL
same,MIC,Lactobacillus jensenii [7],> 32 µg/mL
same,CLSI QC range (MIC),B. fragilis ATCC 25285 [8],(0.25-2)^1 μg/mL
same,MIC,Bifidobacterium bifidum [9],1 µg/mL
same,MIC,Bifidobacterium longum [10],8 µg/mL
same,MIC,B. longum MMX 3968,8 µg/mL
same,MIC,Lactobacillus crispatus,> 32 µg/mL

# — patent US11207291B2, “Antimicrobial compositions comprising cannabinoids and methods of using the same” (Graphium Biosciences, Inc., priority 2017, dated 2021)
